Values quoted from earlier work in US20140350097A1, “TREATMENT OF HYPOTENSION ASSOCIATED WITH HEMODIALYSIS” (priority 2013, published 2014).

Experiments:
[1] = test system: normal animals and animals with hypotensive shock; settings: cited from earlier work
[2] = test system: LPS-induced hypotension in animals; settings: intravenous injection; cited from earlier work

CNC(=N)NCCC[C@H](N)C(=O)O [N-monomethyl-L-arginine, N^G-monomethyl-L-arginine]
effect on blood pressure [1]: can cause hypertension
effect on LPS-induced hypotension [2]: reverse LPS-induced hypotension
